Data on 1 compound can be found in article PMC4417528, “Loureirin B, an essential component of Sanguis Draxonis, inhibits Kv1.3 channel and suppresses cytokine release from Jurkat T cells” (Cell & Bioscience, 2014).

Each structure is given as a SMILES string.

What is called IC50 is the concentration that gives 50% inhibition. A low value points to greater potency in that assay.

Common to all, as to type: cell-based
The target of one experiment is T1, mKv1.3-H404T (Mus musculus, UniProt P16390, H404T).
T1 construct: gene Kcna3; mKv1.3 mutant expressed in HEK293T cells
The experiment in a line: whole-cell patch clamp, HEK293T cells, steady-state current at +[…] mV. On the technique in general: The patch-clamp technique gives a direct electrical read-out from membranes.

The next experiment has as its target T2, mKv1.3 (Mus musculus, UniProt P16390).
T2 construct: gene Kcna3; wild-type mKv1.3 expressed in HEK293T cells
The description is as above.

For another experiment, the target named is T3, Kv1.3 (Homo sapiens, UniProt P22001).
T3 construct: gene KCNA3; endogenous Kv1.3 in Jurkat T cells
Kind of experiment: whole-cell patch clamp, Jurkat T cells.

The next experiment concerns the target T4, mKv1.3-A418C (Mus musculus, UniProt P16390, A418C).
T4 construct: gene Kcna3; mKv1.3 mutant expressed in HEK293T cells
The experiment in a line: whole-cell patch clamp, HEK293T cells, steady-state current at +[…] mV.

T1 sequence (P16390 whole entry H404T): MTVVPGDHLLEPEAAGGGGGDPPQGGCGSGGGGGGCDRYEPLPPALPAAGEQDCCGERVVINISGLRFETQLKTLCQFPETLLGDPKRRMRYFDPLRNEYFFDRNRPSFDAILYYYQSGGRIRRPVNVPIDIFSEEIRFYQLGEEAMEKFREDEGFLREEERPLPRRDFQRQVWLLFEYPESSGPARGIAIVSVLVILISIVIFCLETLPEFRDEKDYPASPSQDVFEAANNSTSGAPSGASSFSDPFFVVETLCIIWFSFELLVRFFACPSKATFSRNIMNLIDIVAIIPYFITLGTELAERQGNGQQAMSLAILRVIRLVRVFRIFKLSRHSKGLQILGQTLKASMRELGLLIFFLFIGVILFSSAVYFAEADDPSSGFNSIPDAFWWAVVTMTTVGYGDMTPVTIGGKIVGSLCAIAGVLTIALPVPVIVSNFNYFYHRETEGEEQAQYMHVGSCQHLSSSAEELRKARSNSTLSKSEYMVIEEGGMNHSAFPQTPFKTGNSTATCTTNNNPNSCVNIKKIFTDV
T4 sequence (P16390 whole entry A418C): as the sequence (P16390 whole entry H404T) above, with T404H, A418C counted along it
T3 sequence (P22001 whole entry): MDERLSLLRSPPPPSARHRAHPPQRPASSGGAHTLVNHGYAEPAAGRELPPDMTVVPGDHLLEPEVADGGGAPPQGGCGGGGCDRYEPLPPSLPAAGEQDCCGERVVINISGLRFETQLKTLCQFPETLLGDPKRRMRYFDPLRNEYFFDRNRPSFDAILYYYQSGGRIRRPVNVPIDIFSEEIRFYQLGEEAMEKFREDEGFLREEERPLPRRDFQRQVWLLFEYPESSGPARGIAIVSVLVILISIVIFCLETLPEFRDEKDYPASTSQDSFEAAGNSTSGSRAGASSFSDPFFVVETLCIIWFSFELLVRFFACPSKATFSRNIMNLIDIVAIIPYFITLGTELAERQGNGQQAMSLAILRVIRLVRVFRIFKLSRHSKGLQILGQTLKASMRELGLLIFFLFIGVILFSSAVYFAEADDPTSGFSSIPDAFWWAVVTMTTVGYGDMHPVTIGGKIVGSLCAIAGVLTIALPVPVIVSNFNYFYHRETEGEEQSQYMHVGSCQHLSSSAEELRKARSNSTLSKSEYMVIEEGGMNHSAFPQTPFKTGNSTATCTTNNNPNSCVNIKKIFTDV
T2 sequence (P16390 whole entry): as the sequence (P16390 whole entry H404T) above, with T404H counted along it

Consider `COc1cc(OC)c(CCC(=O)c2ccc(O)cc2)c(OC)c1` [LrB, loureirin B], for which the 50% inhibitory concentration (IC50) on mKv1.3-H404T came to 116 ± 19.8 µM; at mKv1.3 it was 7.2 ± 0.6 µM; against Kv1.3 it was 19.9 ± 1.8 µM; at mKv1.3-A418C, 29.1 ± 7.1 µM.
